The values that follow come from patent publication US9994581B2, “Bromodomain inhibitors” (AbbVie Inc., priority 2013, dated 2018).

The test system of experiment [1] is LPS induced IL-6 (Interleukin-6) production. As to the kind of experiment: LPS (lipopolysaccharide) induced IL-6 production mouse assay. Conditions: CD1 mouse strain; oral administration one hour before LPS 2.5 mg/kg i.p.; serum IL-6 2 hours after LPS; p < 0.05.
Description: Compounds of the Examples listed in Table 2 were assayed for their ability to inhibit LPS (lipopolysaccharide) induced IL-6 (Interleukin-6) production in mice. Fox Chase SCID® female mice (Charles Rivers Labs, 8 per group) or CD1 female mice received an intraperitoneal challenge of lipopolysaccharide (2.5 mg/kg, L2630 E. coli 0111:B4) one hour after oral administration of compounds. Mice were euthanized 2 hours after lipopolysaccharide injection, blood was removed by cardiac puncture, and then the serum harvested from the blood samples was frozen at −80° C. On the day of the assay the serum samples were brought to room temperature and then diluted 1:20 in phosphate-buffered saline containing 2% bovine serum albumin. Interleukin-6 measurements were performed using a cytokine assay from Meso Scale Discovery (Gaithersburg, Md.) for mouse serum analysis according to the manufacturer's protocol and read on a SECTOR Imager 6000 (Meso Scale Discovery, Gaithersburg, Md.) instrument. Statistical analysis was performed using Prism software (version 5.0) incorporating Dunnett's one way ANOVA. The IL-6 mean and standard deviation of the group of vehicle treated animals were compared with the IL-6 mean and standard deviation of the group treated with drug.
In experiment [2] the test system is breast cancer cell line MX-1. As to the kind of experiment: MX-1 cell line proliferation assay (3-day, Cell Titer Glo). Type of experiment: cell-based. The settings on record: Homo sapiens, MX1, MX-1 cells, 72 hours, read-out: Cellular proliferation: EC50. Here is the method:
The impact of compounds of the Examples on cancer cell proliferation was determined using the breast cancer cell line MX-1 (ATCC) in a 3-day proliferation assay and the data are reported in Table 1. […] For compound testing, MX-1 cells were plated in 96-well black bottom plates at a density of 5000 cells/well in 90 μL of culture media and incubated at 37° overnight to allow cell adhesion and spreading. Compound dilution series were prepared in DMSO via a 3-fold serial dilution from 3 mM to 0.1 μM. The DMSO dilution series were then diluted 1:100 in phosphate buffered saline, and 10 μL of the resulted solution were added to the appropriate wells of the MX-1 cell plate. The final compound concentrations in the wells were 3, 1, 0.3, 0.1, 0.03, 0.01, 0.003, 0.001, 0.0003, and 0.0001 μM, or 1, 0.3, 0.1, 0.03, 0.01, 0.003, 0.001, 0.0003, 0.0001, and 0.00003 μM.
Luminescence readings from the Cell Titer Glo assay were normalized to the DMSO treated cells and analyzed using the GraphPad Prism software with sigmoidal curve fitting to obtain EC50s.
On the technique in general: In ATP-based viability assays light output follows the ATP content of the culture.

A further experiment deals with BRD4 (BDI-BDII_K57-K550) (Homo sapiens, UniProt O60885). As to the kind of experiment: TR-FRET bromodomain binding assay. Conditions: His-tagged tandem bromodomain, Alexa647-labeled probe; Ki calculated from IC50s, probe Kd and probe concentration. Here is the method:
A time-resolved fluorescence resonance energy transfer (TR-FRET) assay was used to determine the affinities of compounds of the Examples listed in Table 1 for the tandem domain of bromodomain BRD4. […] An Alexa647-labeled BET-inhibitor was used as the fluorescent probe in the assay.
TR-FRET data were normalized to the means of 24 no-compound controls (“high”) and 8 controls containing 1 μM un-labeled probe (“low”). Percent inhibition was plotted as a function of compound concentration and the data were fit with the 4 parameter logistic equation to obtain IC50s. Inhibition constants (Ki) were calculated from the IC50s, probe Kd and probe concentration. Typical Z′ values were between 0.65 and 0.75.

The term Ki denotes a dissociation constant, usually derived from enzyme kinetics or from competition with a known ligand. Consider `Cn1cc2c(cc1=O)OCCCCc1cc(Cl)ccc1Oc1ccc(CS(C)(=O)=O)cc1-2` [Example A-36, 11-chloro-2-methyl-17-((methylsulfonyl)methyl)-6,7,8,9-tetrahydrodibenzo[4,5:7,8][1,6]dioxacyclododecino[3,2-c]pyridin-3(2H)-one], for which the “Inhibition of LPS induced IL-6 production, % inhibition” value (“Inhibition … % inhibition” for short) in experiment [1] was 68%. Further, the EC50 in experiment [2] was found to be 19.2 nM. In addition, the Ki on BRD4 (BDI-BDII_K57-K550) was 2.85 nM.
In the case of `CCS(=O)(=O)Nc1ccc2c(c1)-c1cn(C)c(=O)cc1OCCCCc1cc(Cl)ccc1O2` [Example A-9, N-(11-chloro-2-methyl-3-oxo-2,3,6,7,8,9-hexahydrodibenzo[4,5:7,8][1,6]dioxacyclododecino[3,2-c]pyridin-17-yl)ethanesulfonamide], the “Inhibition … % inhibition” value in experiment [1] was 83%. Moreover, the EC50 in experiment [2] turned out to be 5.69 nM. For the same molecule, on BRD4 (BDI-BDII_K57-K550), the Ki was 0.93 nM.
`Cn1cc2c(cc1=O)OCCCCc1ccc(Cl)cc1Oc1ccc(NS(C)(=O)=O)cc1-2` [Example A-44, N-(12-chloro-2-methyl-3-oxo-2,3,6,7,8,9-hexahydrodibenzo[4,5:7,8][1,6]dioxacyclododecino[3,2-c]pyridin-17-yl)methanesulfonamide]: the EC50 in experiment [2] was found to be 4.05 nM. At BRD4 (BDI-BDII_K57-K550), the inhibitory constant (Ki) was 1.22 nM.
For `CCNC(=O)N1CCOc2cc(=O)n(C)cc2-c2cc(NS(=O)(=O)CC)ccc2Oc2ccc(Cl)cc2C1` [Example B-9, 11-chloro-N-ethyl-17-[(ethylsulfonyl)amino]-2-methyl-3-oxo-2,3,6,7-tetrahydrodibenzo[f,i]pyrido[3,4-k][1,8,4]dioxazacyclododecine-8(9H)-carboxamide] the same measures were 47.3 nM and 0.64 nM.
`CCS(=O)(=O)Nc1ccc2c(c1)-c1cn(C)c(=O)cc1OCCN(CC1CC1)Cc1cc(Cl)ccc1O2` [Example B-12, N-[11-chloro-8-(cyclopropylmethyl)-2-methyl-3-oxo-2,3,6,7,8,9-hexahydrodibenzo[f,i]pyrido[3,4-k][1,8,4]dioxazacyclododecin-17-yl]ethanesulfonamide]: the EC50 in experiment [2] is 8.01 nM. Also, the Ki on BRD4 (BDI-BDII_K57-K550) is 5.1 nM.
For the molecule `CCS(=O)(=O)c1ccc2c(c1)-c1cn(C)c(=O)cc1OCCCc1ccccc1O2` [Example A-1, 16-(ethylsulfonyl)-2-methyl-7,8-dihydro-2H-dibenzo[4,5:7,8][1,6]dioxacycloundecino[3,2-c]pyridin-3(6H)-one], the EC50 in experiment [2] turned out to be 6.89 nM. The inhibition constant Ki at BRD4 (BDI-BDII_K57-K550) is 4.58 nM.
For `CCS(=O)(=O)Nc1ccc2c(c1)-c1cn(C)c(=O)cc1OCCCCc1ccc(Cl)cc1O2` [Example A-52, N-(12-chloro-2-methyl-3-oxo-2,3,6,7,8,9-hexahydrodibenzo[4,5:7,8][1,6]dioxacyclododecino[3,2-c]pyridin-17-yl)ethanesulfonamide] the same measures were 5.76 nM and 0.75 nM.
For `Cn1cc2c(cc1=O)OCCCCc1cc(Cl)ccc1Oc1ncc(CO)cc1-2` [Example A-39, 11-chloro-17-(hydroxymethyl)-2-methyl-6,7,8,9-tetrahydrobenzo[11,12][1,6]dioxacyclododecino[2,3-b:4,5-c′]dipyridin-3(2H)-one], the EC50 in experiment [2] was determined as 173 nM. Besides, on BRD4 (BDI-BDII_K57-K550), the inhibition constant (Ki) is 15.7 nM.
`CCNC(=O)Nc1ccc2c(c1)-c1cn(C)c(=O)cc1OCCCc1cc(Cl)ccc1O2` [Example A-10, 1-(10-chloro-2-methyl-3-oxo-3,6,7,8-tetrahydro-2H-dibenzo[4,5:7,8][1,6]dioxacycloundecino[3,2-c]pyridin-16-yl)-3-ethylurea]: the EC50 in experiment [2] is 347 nM. Moreover, on BRD4 (BDI-BDII_K57-K550), the Ki was 35.2 nM.
Regarding `CCS(=O)(=O)Nc1ccc2c(c1)-c1cn(C)c(=O)cc1OCCCCc1cc(OC(F)(F)F)ccc1O2` [Example A-37, N-[2-methyl-3-oxo-11-(trifluoromethoxy)-2,3,6,7,8,9-hexahydrodibenzo[4,5:7,8][1,6]dioxacyclododecino[3,2-c]pyridin-17-yl]ethanesulfonamide], the EC50 in experiment [2] turned out to be 6.12 nM. Moreover, the Ki on BRD4 (BDI-BDII_K57-K550) is 0.87 nM.
On to `Cn1cc2c(cc1=O)OCCCCc1cc(Cl)ccc1Oc1ncccc1-2` [Example A-27, 11-chloro-2-methyl-6,7,8,9-tetrahydrobenzo[11,12][1,6]dioxacyclododecino[2,3-b:4,5-c′]dipyridin-3(2H)-one], for which, in experiment [2], the EC50 is 62.8 nM. The Ki at BRD4 (BDI-BDII_K57-K550) was 12.2 nM.
The corresponding values for `CCS(=O)(=O)Nc1ccc2c(c1)-c1cn(C)c(=O)cc1OCCNCc1cc(Cl)ccc1O2` [Example B-11, N-(11-chloro-2-methyl-3-oxo-2,3,6,7,8,9-hexahydrodibenzo[f,i]pyrido[3,4-k][1,8,4]dioxazacyclododecin-17-yl)ethanesulfonamide] are 25.1 nM and 9.45 nM.
Consider `CCS(=O)(=O)c1cnc2c(c1)-c1cn(C)c(=O)cc1OCCCCc1cc(Cl)ccc1O2` [Example A-34, 11-chloro-17-(ethylsulfonyl)-2-methyl-6,7,8,9-tetrahydrobenzo[11,12][1,6]dioxacyclododecino[2,3-b:4,5-c′]dipyridin-3(2H)-one], for which the EC50 in experiment [2] was 33.3 nM. Further, at BRD4 (BDI-BDII_K57-K550), the inhibition constant Ki was 6.92 nM.
For `Cn1cc2c(cc1=O)OCCCCc1cc(F)cc(F)c1Oc1ncc(CS(C)(=O)=O)cc1-2` [Example A-43, 11,13-difluoro-2-methyl-17-((methylsulfonyl)methyl)-6,7,8,9-tetrahydrobenzo[11,12][1,6]dioxacyclododecino[2,3-b:4,5-c′]dipyridin-3(2H)-one] the same measures were 10.7 nM and 3.82 nM.
Regarding `CC(=O)Nc1ccc2c(c1)-c1cn(C)c(=O)cc1OCCN(C(C)=O)Cc1cc(Cl)ccc1O2` [Example B-2, N-(8-acetyl-11-chloro-2-methyl-3-oxo-2,3,6,7,8,9-hexahydrodibenzo[f,i]pyrido[3,4-k][1,8,4]dioxazacyclododecin-17-yl)acetamide], the EC50 in experiment [2] worked out at 142 nM. Further, the Ki at BRD4 (BDI-BDII_K57-K550) was 15.6 nM.
For `CCS(=O)(=O)Nc1ccc2c(c1)-c1cn(C)c(=O)cc1OCCCCc1cccnc1O2` [Example A-46, N-(12-methyl-11-oxo-5,6,7,8,11,12-hexahydrobenzo[4,5][1,6]dioxacyclododecino[7,8-b:3,2-c′]dipyridin-15-yl)ethanesulfonamide] the same measures were 50.7 nM and 32.1 nM.
In the case of `CCS(=O)(=O)Nc1ccc2c(c1)-c1nn(C)c(=O)cc1OCCCCc1cc(F)cc(F)c1O2` [Example A-58, N-(11,13-difluoro-2-methyl-3-oxo-2,3,6,7,8,9-hexahydrodibenzo[4,5:7,8][1,6]dioxacyclododecino[3,2-c]pyridazin-17-yl)ethanesulfonamide], in experiment [2], the EC50 is 18.4 nM. Further, the Ki on BRD4 (BDI-BDII_K57-K550) was 2.01 nM.
Regarding `Cn1cc2c(cc1=O)OCCCCc1cc(C(F)(F)F)ccc1Oc1ccc(NS(C)(=O)=O)cc1-2` [Example A-51, N-(2-methyl-3-oxo-11-(trifluoromethyl)-2,3,6,7,8,9-hexahydrodibenzo[4,5:7,8][1,6]dioxacyclododecino[3,2-c]pyridin-17-yl)methanesulfonamide], in experiment [2], the EC50 was determined as 14 nM. The inhibition constant Ki on BRD4 (BDI-BDII_K57-K550) is 1.72 nM.
Take `CCS(=O)(=O)Nc1ccc2c(c1)-c1cn(C)c(=O)cc1OCC/C=C/Cc1cc(Cl)ccc1O2` [Example A-15, (E)-N-(12-chloro-2-methyl-3-oxo-3,6,7,10-tetrahydro-2H-dibenzo[4,5:7,8][1,6]dioxacyclotridecino[3,2-c]pyridin-18-yl)ethanesulfonamide]: in experiment [2], the EC50 was 42.4 nM. Also, at BRD4 (BDI-BDII_K57-K550), the inhibition constant Ki is 3.06 nM.
As for `CC(=O)Nc1ccc2c(c1)-c1cn(C)c(=O)cc1OCCCc1cc(Cl)ccc1O2` [Example A-11, N-(10-chloro-2-methyl-3-oxo-3,6,7,8-tetrahydro-2H-dibenzo[4,5:7,8][1,6]dioxacycloundecino[3,2-c]pyridin-16-yl)acetamide], in experiment [2], the EC50 came out at 30.6 nM. Also, at BRD4 (BDI-BDII_K57-K550), the Ki was 5.37 nM.
For `CCS(=O)(=O)Nc1ccc2c(c1)-c1cn(C)c(=O)cc1OCCCCc1cc(F)cc(F)c1O2` [Example A-14, N-(11,13-difluoro-2-methyl-3-oxo-2,3,6,7,8,9-hexahydrodibenzo[4,5:7,8][1,6]dioxacyclododecino[3,2-c]pyridin-17-yl)ethanesulfonamide], in experiment [1], the “Inhibition … % inhibition” value was 77%.
As for `CCS(=O)(=O)Nc1ccc2c(c1)-c1cn(C)c(=O)cc1OCCN(S(=O)(=O)NC(C)=O)Cc1cc(Cl)ccc1O2` [Example B-16, N-({11-chloro-17-[(ethylsulfonyl)amino]-2-methyl-3-oxo-2,3,6,7-tetrahydrodibenzo[f,i]pyrido[3,4-k][1,8,4]dioxazacyclododecin-8(9H)-yl}sulfonyl)acetamide], the EC50 in experiment [2] is over 1000 nM. On BRD4 (BDI-BDII_K57-K550), the Ki is 1.28 nM.
